# In patent publication US20220356174A1, “PYRIDIN-2-ONE COMPOUNDS USEFUL AS SMARCA2 ANTAGONISTS” (Epizyme, Inc., priority 2018, published 2022):
# pIC50: −log10 of the molar value. Read-outs that look alike come from different tables or passages of the source.
# Key:
# [1] = target: T1, FL-SMARCA2 (full-length human SMARCA2 isoform 1) (Homo sapiens, UniProt P51531); test: SMARCA2 ATPase activity assay (ADP-Glo, chicken mononucleosome substrate); type: biochemical; details: ATP 250 uM
# T1 construct: FLAG tag (YKDDDDK) (C); made in house; host or cells: Sf21 insect cells (baculovirus, pFastBacI)
# From the text: Molecular Biology: Full-length human SMARCA2 isoform 1 (P51531) transcript clone was amplified from a cDNA library incorporating an N-terminal HIS tag ([…]) fused directly to Ser2 of SMARCA2 and a C-FLAG tag (YKDDDDK) fused directly to Glu1590 of SMARCA2. The amplified gene was subcloned into pFastBacI (Life Technologies).
# Protein Expression: Recombinant baculovirus were generated and protein over-expression was accomplished by infecting exponentially growing Sf21 insect cell culture at 1.24×10^6 cell/ml with an MOI of 0.1. Infections were carried out for 76 hours, harvested by centrifugation, and stored at −80° C. for purification.
# Expressed full-length SMARCA2 was purified from cell paste by FLAG affinity chromatography followed by anion exchange chromatography. The protein was dialyzed into a storage buffer containing 25 mM HEPES, 300 mM KCl, 10% Glycerol, pH 7.9, 1 mM TCEP and 0.01% Tween-20. The purity of the protein was measured as 74% using micro-capillary based gel electrophoresis.
# FL-SMARCA4 = FL-SMARCA4 (Homo sapiens, UniProt P51532); test: SMARCA4 ATPase activity assay (ADP-Glo, chicken mononucleosome substrate)
# [2] = Table 3a.1, SMARCA2 5 nM, mononucleosome 10 nM
# [3] = FL-SMARCA4 IC50, Table 3a.2, SMARCA4 5 nM, ATP 250 uM, mononucleosome 10 nM
# [4] = Table 3.1, ATPase assay, enzyme 5 nM, chicken mononucleosome 10 nM, 30 min preincubation
# [5] = FL-SMARCA4 IC50, Table 3.2, ATPase assay, enzyme 5 nM, ATP 250 uM, chicken mononucleosome 10 nM, 30 min preincubation
# [6] = Table 3c.1, ATPase assay, enzyme 5 nM, chicken mononucleosome 10 nM, 30 min preincubation
# [7] = FL-SMARCA4 IC>50, Table 3c.2, ATPase assay, enzyme 5 nM, ATP 250 uM, chicken mononucleosome 10 nM, 30 min preincubation
# [8] = Table 3d.1, ATPase assay, enzyme 5 nM, chicken mononucleosome 10 nM, 30 min preincubation, read-out: FL-SMARCA2 IC>50
# [9] = Table 3b.1, SMARCA2 5 nM, mononucleosome 10 nM
# [10] = FL-SMARCA4 IC50, Table 3b.2, SMARCA4 5 nM, ATP 250 uM, mononucleosome 10 nM
# Sequence of FL-SMARCA4 (P51532 whole entry): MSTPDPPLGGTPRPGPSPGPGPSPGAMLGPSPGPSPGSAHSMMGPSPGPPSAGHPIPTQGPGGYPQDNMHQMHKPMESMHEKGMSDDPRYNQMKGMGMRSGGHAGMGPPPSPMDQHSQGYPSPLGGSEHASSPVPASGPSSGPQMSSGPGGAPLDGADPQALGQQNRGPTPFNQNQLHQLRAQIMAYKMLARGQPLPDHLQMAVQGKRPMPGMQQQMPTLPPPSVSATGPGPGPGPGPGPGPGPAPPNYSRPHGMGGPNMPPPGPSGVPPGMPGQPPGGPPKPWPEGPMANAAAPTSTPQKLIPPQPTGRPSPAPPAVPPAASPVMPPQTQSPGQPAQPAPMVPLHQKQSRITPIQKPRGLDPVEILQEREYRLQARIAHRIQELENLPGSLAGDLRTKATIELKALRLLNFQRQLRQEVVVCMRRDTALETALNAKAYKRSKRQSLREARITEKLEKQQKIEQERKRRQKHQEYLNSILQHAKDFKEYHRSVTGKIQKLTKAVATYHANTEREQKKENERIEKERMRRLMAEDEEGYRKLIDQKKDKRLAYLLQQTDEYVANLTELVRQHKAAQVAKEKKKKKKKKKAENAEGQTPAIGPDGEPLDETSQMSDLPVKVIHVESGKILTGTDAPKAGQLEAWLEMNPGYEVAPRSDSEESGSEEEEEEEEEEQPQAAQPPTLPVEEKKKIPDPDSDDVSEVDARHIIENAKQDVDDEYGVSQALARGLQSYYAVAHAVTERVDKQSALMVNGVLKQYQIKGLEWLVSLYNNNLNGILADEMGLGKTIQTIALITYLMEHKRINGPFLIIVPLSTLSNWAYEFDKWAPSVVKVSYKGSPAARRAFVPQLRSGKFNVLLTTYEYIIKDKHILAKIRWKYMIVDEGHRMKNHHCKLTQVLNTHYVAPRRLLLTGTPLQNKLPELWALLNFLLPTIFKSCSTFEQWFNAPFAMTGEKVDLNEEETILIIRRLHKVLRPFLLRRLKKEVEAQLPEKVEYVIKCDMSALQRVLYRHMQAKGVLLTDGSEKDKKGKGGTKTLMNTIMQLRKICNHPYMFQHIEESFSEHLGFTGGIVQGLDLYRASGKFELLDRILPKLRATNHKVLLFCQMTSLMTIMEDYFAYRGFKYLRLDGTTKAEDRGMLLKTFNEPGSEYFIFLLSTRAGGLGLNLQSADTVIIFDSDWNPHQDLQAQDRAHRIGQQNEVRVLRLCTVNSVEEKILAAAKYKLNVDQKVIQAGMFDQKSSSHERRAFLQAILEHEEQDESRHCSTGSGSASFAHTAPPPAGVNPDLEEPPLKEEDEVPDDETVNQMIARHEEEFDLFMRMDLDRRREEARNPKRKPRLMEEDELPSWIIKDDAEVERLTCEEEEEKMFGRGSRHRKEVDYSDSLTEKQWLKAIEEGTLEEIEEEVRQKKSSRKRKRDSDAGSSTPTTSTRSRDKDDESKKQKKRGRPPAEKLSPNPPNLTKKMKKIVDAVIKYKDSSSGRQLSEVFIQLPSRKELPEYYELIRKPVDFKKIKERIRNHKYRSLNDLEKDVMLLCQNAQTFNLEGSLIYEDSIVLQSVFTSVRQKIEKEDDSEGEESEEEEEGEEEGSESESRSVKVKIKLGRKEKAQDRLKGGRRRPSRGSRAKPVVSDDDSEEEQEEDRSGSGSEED
# T1 sequence (P51531 with tags, fused parts or gaps): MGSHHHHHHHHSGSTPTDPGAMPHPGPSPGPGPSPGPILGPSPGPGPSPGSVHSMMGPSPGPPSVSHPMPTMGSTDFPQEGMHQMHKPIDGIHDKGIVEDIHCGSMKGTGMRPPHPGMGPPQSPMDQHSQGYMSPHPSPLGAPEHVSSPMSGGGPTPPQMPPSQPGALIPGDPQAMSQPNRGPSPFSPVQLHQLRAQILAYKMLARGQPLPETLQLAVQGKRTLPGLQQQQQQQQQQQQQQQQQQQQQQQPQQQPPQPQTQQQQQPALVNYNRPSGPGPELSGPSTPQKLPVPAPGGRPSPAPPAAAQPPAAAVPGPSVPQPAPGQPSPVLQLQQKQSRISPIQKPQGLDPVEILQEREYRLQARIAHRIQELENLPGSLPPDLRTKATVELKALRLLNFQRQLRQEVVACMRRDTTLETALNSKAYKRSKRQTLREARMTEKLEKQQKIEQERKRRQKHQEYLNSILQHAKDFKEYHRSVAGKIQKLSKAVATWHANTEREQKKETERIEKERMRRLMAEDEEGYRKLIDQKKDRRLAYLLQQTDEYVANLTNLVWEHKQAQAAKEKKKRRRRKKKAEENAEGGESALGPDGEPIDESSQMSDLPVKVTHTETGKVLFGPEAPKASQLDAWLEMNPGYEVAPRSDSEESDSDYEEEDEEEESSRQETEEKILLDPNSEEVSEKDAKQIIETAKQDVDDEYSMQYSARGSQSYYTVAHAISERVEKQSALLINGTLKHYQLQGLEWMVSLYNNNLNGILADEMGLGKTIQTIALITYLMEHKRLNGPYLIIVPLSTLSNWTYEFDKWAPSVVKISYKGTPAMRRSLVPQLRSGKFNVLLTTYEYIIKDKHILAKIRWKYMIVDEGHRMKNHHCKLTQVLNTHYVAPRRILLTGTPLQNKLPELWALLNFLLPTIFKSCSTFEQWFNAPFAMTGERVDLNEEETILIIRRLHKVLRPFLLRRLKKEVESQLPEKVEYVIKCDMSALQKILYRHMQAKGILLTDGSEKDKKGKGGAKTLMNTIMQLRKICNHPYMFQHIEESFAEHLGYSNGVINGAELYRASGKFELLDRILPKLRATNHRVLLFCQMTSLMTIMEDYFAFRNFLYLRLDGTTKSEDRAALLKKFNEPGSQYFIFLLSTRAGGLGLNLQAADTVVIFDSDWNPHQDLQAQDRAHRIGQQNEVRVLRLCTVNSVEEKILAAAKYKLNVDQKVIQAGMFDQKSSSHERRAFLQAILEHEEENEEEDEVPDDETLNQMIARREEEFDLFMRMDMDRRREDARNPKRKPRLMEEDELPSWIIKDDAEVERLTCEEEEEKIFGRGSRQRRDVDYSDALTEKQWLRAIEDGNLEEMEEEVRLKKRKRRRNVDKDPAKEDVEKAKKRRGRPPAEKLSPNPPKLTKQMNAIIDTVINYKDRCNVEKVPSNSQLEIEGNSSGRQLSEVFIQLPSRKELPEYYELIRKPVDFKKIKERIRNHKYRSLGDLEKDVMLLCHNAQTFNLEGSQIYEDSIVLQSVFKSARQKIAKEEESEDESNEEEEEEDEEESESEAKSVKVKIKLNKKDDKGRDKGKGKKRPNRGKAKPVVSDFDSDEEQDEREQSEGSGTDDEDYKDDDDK
Compound,"pIC50 [1, 4]",pIC50 (FL-SMARCA4; [5]),further results
O=C(Nc1cc(F)c(=O)n(CCF)c1)c1ccc2c(c1)CNC2=O [Compound 68a],–,–,"pIC50 [1, 2]: < 4.30; pIC50 (FL-SMARCA4; [3]): < 4.30"
CCn1cc(NC(=O)c2cc(Cl)c(Cl)s2)cc(OCCN(C)C)c1=O [Compound 121],< 4.30,< 4.30,–
O=C(Nc1cc(-c2c[nH]cn2)c(=O)n(CC(F)F)c1)c1cc(Cl)c(C(F)(F)F)s1 [Compound 104c],–,–,"pIC50 [1, 6]: 4.65; pIC50 (FL-SMARCA4; [7]): 4.53"
CCn1cc(NC(=O)c2cc(Cl)c(Cl)s2)cc(NC)c1=O [Compound 126],4.33,< 4.30,–
CCn1cc(NC(=O)c2cnc(C#N)s2)ccc1=O [Compound 206],6.50,6.19,–
O=C(Nc1ccc(=O)n(CCF)c1)c1cc(Cl)n[nH]1 [Compound 154],5.71,5.09,–
CCn1cc(NC(=O)c2cc(C(F)(F)F)nn2C)ccc1=O [Compound 15],< 4.30,< 4.30,–
CCn1cc(NC(=O)c2cc(Cl)c(Cl)s2)c(Cl)cc1=O [Compound 24d],–,–,"pIC50 [1, 8]: 4.73; pIC50 (FL-SMARCA4; FL-SMARCA4 IC50): < 4.30"
O=C(Nc1cc(-c2cnco2)c(=O)n(CC(F)F)c1)c1sc(C(F)(F)F)cc1Cl [Compound 18c],–,–,"pIC50 [1, 6]: < 4.30; pIC50 (FL-SMARCA4; [7]): < 4.30"
O=C(Nc1cc(F)c(=O)n(CCc2cn[nH]c2)c1)c1cc(Cl)c(Cl)s1 [Compound 270],< 4.30,< 4.30,–
CSc1cc(C(=O)Nc2cc(F)c(=O)n(CC(F)F)c2)sc1Cl [Compound 341],6.18,5.03,–
CC(=O)Nc1sc(C(=O)Nc2cc(F)c(=O)n(CCF)c2)cc1Cl [Compound 315],< 4.30,< 4.30,–
N[C@H]1CC[C@H](C#Cc2cc(C(=O)Nc3cc(F)c(=O)n(CC(F)F)c3)sc2Cl)CC1 [Compound 66d],–,–,pIC50 (FL-SMARCA4; FL-SMARCA4 IC50): 5.89
O=C(Nc1cc(F)c(=O)n(CCF)c1)c1cc(CO)c(Cl)s1 [Compound 308],4.63,< 4.30,–
O=C(Nc1ccc(=O)n(Cc2ccccc2)c1)c1ccc(Br)s1 [Compound 54],< 4.30,< 4.30,–
CCn1cc(NC(=O)c2cc3c(n2C)CCC3)ccc1=O [Compound 34a],–,–,"pIC50 [1, 2]: < 4.30; pIC50 (FL-SMARCA4; [3]): < 4.30"
CN(C)C(=O)c1ccc(C(=O)Nc2cc(F)c(=O)n(CCF)c2)s1 [Compound 306],< 4.30,< 4.30,–
Cn1cnc(-c2cc(NC(=O)c3cc(Cl)c(C(F)(F)F)s3)cn(CC(F)F)c2=O)c1 [Compound 91c],–,–,"pIC50 [1, 6]: < 4.30; pIC50 (FL-SMARCA4; [7]): < 4.30"
Cn1c(C(=O)Nc2cc(Cl)c(=O)n(CCF)c2)cc(Cl)c1C#N [Compound 162],6.71,6.03,–
CCN(CC)c1nc2sc(C(=O)Nc3cc(F)c(=O)n(CCF)c3)cc2s1 [Compound 61a],–,–,"pIC50 [1, 2]: < 4.30; pIC50 (FL-SMARCA4; [3]): < 4.30"
CCn1cc(NC(=O)c2cc(Cl)c(C#N)n2C)cc(Cl)c1=O [Compound 161],6.26,5.39,–
CC(=O)Nc1ncc(C(=O)Nc2cc(F)c(=O)n(CCF)c2)s1 [Compound 258],< 4.30,< 4.30,–
CCn1cc(NC(=O)c2cc(Cl)c(Cl)n2C(C)C)ccc1=O [Compound 61],< 4.30,< 4.30,–

Compound,"pIC50 [1, 4]",pIC50 (FL-SMARCA4; [5]),further results
Cn1cnc2cc(C(=O)Nc3cc(F)c(=O)n(CCF)c3)[nH]c2c1=O [Compound 48d],–,–,"pIC50 [1, 8]: < 4.30; pIC50 (FL-SMARCA4; FL-SMARCA4 IC50): < 4.30"
Cn1cc(NC(=O)c2cc(Cl)c(Cl)s2)cc(Cl)c1=O [Compound 178],4.51,4.42,–
CCn1cc(NC(=O)c2cc(C(C)C)n(-c3ccccn3)n2)ccc1=O [Compound 10],< 4.30,< 4.30,–
N#Cc1sc(C(=O)Nc2ccc(=O)n(CCF)c2)cc1Cl [Compound 132],6.85,6.52,–
CCn1cc(NC(=O)c2cc(C#N)c(Cl)s2)cc(F)c1=O [Compound 180],7.07,6.42,–
Cn1cnc(-c2ccc(C(=O)Nc3cc(F)c(=O)n(CCF)c3)s2)c1 [Compound 311],< 4.30,< 4.30,–
CCn1cc(NC(=O)c2cnc(C#N)[nH]2)ccc1=O [Compound 183],< 4.30,< 4.30,–
O=C(Nc1cc(F)c(=O)n(CCF)c1)c1ccc(-c2ccn[nH]2)s1 [Compound 312],< 4.30,< 4.30,–
O=C(Nc1ccc(=O)n(CC(F)(F)F)c1)c1nc2cc(Cl)c(Cl)cc2[nH]1 [Compound 43a],–,–,"pIC50 [1, 2]: < 4.30; pIC50 (FL-SMARCA4; [3]): < 4.30"
N#Cc1cc(C(=O)Nc2cc(F)c(=O)n(CCF)c2)oc1C#N [Compound 246],5.87,5.20,–
CCn1c(F)c(NC(=O)c2cc(Cl)c(Cl)s2)ccc1=O [Compound 29d],–,–,"pIC50 [1, 8]: < 4.30; pIC50 (FL-SMARCA4; FL-SMARCA4 IC50): < 4.30"
O=C(Nc1cc(F)c(=O)n(CCF)c1)c1cnc(OC(F)F)s1 [Compound 269],5.29,4.60,–
Cn1cc(-c2cc(NC(=O)c3cc(Cl)c(C(F)(F)F)s3)cn(CC(F)F)c2=O)cn1 [Compound 14c],–,–,"pIC50 [1, 6]: < 4.30; pIC50 (FL-SMARCA4; [7]): < 4.30"
CCn1cc(NC(=O)c2csc(C#N)n2)ccc1=O [Compound 199],< 4.30,< 4.30,–
CCn1cc(NC(=O)c2cc(Cl)c(Cl)s2)cc(OCCN2CCOCC2)c1=O [Compound 122],< 4.30,< 4.30,–
CCn1cc(NC(=O)c2ccc(F)c(Cl)c2)ccc1=O [Compound 8b],–,–,"pIC50 [1, 9]: < 4.30; pIC50 (FL-SMARCA4; [10]): < 4.30"
CCn1cc(NC(=O)c2cc(CN(C)C)cs2)ccc1=O [Compound 98],< 4.30,< 4.30,–
CCn1cc(NC(=O)c2cnc(NC(C)C)s2)ccc1=O [Compound 217],< 4.30,< 4.30,–
CCn1cc(NC(=O)c2c(C)noc2C)ccc1=O [Compound 14],< 4.30,< 4.30,–
CCn1cc(NC(=O)c2cc(I)cn2C)ccc1=O [Compound 51],4.33,< 4.30,–
CCn1cc(NC(=O)c2ccc(Cl)c(C)n2)ccc1=O [Compound 35a],–,–,"pIC50 [1, 2]: < 4.30; pIC50 (FL-SMARCA4; [3]): < 4.30"
CCCn1cc(NC(=O)c2cc(Cl)c(Cl)n2C)ccc1=O [Compound 68],5.07,< 4.30,–
CCn1cc(NC(=O)c2cn(C)nc2C(F)F)ccc1=O [Compound 28],–,< 4.30,–

Compound,"pIC50 [1, 4]",pIC50 (FL-SMARCA4; [5]),further results
CCn1cc(NC(=O)c2cc(Br)cs2)ccc1=O [Compound 45],4.37,–,–
CCn1cc(C(=O)Nc2ccc(Br)s2)ccc1=O [Compound 77],< 4.30,< 4.30,–
CCn1cc(NC(=O)C2C(C)(C)C2(C)C)ccc1=O [Compound 3b],–,–,"pIC50 [1, 9]: < 4.30; pIC50 (FL-SMARCA4; [10]): < 4.30"
CCC(CC)N1CC(C(=O)Nc2cc(Cl)c(=O)n(C)c2)CC1=O (stereo not shown) [Compound 12a],–,–,"pIC50 [1, 2]: < 4.30; pIC50 (FL-SMARCA4; [3]): < 4.30"
CCn1cc(NC(=O)c2nc(Br)cs2)ccc1=O [Compound 30],–,< 4.30,–
O=C(Nc1ccc(=O)n(-c2ccccc2)c1)c1ccc(Br)s1 [Compound 50],< 4.30,–,–
CCn1cc(NC(=O)c2cnc3ccccn23)ccc1=O [Compound 19a],–,–,"pIC50 [1, 2]: < 4.30"
CCn1cc(NC(=O)c2ccc(I)s2)ccc1=O [Compound 46],4.95,–,–
CCn1cc(NC(=O)c2cc(C)oc2C)ccc1=O [Compound 23],–,< 4.30,–
CCn1cc(NC(=O)c2cc(C)n[nH]2)ccc1=O [Compound 27],–,< 4.30,–
CCn1cc(NC(=O)c2csc(C(F)(F)F)n2)ccc1=O [Compound 25],–,< 4.30,–
CCn1cc(NC(=O)c2csnn2)ccc1=O [Compound 29],–,< 4.30,–
O=C(O)c1cccc(C#Cc2cc(C(=O)Nc3cc(F)c(=O)n(CC(F)F)c3)ccn2)c1 [Compound 132c],–,–,pIC50 (FL-SMARCA4; [7]): 4.95
CCn1c(C(=O)Nc2ccc(=O)n(CC)c2)cc(Cl)c1Cl [Compound 42],4.90,–,–
CCn1cc(NC(=O)c2cnc(Cl)[nH]2)ccc1=O [Compound 99],< 4.30,–,–
CCn1cc(NC(=O)c2cc(Cl)n(C)n2)ccc1=O [Compound 100],< 4.30,–,–
CCn1cc(NC(=O)c2cc(C3CC3)on2)ccc1=O [Compound 24],–,< 4.30,–
CCn1cc(NC(=O)c2cn(C)nc2C(F)(F)F)ccc1=O [Compound 31],–,< 4.30,–
CCn1cc(NC(=O)c2snc(Cl)c2Cl)ccc1=O [Compound 34],4.55,–,–
N#Cc1cc(C(=O)Nc2cc(C#N)c(=O)n(CCF)c2)sc1Cl [Compound 321],–,6.20,–
Cn1c(C(=O)Nc2ccc(=O)n(C3CC3)c2)cc(Cl)c1Cl [Compound 41],< 4.30,–,–
CCn1cc(NC(=O)c2ncc(Br)s2)ccc1=O [Compound 49],< 4.30,–,–
